# Reference: BindingDB's records for patent US10913744 (Dana-Farber Cancer Institute, 2021)
# Key:
# [1] = target: T1, Leucine-rich repeat serine/threonine-protein kinase 2 [1326-2527,G2019S] (Homo sapiens, UniProt Q5S007, G2019S); test: Enzyme Assay
# T1 construct: 1326-2527
# Procedure: (§1) Samples were washed extensively and the incorporation of [γ-32P]ATP into Nictide was quantified by Cerenkov counting. IC50 values were calculated with GraphPad Prism using non-linear regression analysis.
# [2] = target: T2, Leucine-rich repeat serine/threonine-protein kinase 2 [1326-2527] (Homo sapiens, UniProt Q5S007); test: Enzyme Assay
# T2 construct: 1326-2527
# T2 sequence (Q5S007 whole entry): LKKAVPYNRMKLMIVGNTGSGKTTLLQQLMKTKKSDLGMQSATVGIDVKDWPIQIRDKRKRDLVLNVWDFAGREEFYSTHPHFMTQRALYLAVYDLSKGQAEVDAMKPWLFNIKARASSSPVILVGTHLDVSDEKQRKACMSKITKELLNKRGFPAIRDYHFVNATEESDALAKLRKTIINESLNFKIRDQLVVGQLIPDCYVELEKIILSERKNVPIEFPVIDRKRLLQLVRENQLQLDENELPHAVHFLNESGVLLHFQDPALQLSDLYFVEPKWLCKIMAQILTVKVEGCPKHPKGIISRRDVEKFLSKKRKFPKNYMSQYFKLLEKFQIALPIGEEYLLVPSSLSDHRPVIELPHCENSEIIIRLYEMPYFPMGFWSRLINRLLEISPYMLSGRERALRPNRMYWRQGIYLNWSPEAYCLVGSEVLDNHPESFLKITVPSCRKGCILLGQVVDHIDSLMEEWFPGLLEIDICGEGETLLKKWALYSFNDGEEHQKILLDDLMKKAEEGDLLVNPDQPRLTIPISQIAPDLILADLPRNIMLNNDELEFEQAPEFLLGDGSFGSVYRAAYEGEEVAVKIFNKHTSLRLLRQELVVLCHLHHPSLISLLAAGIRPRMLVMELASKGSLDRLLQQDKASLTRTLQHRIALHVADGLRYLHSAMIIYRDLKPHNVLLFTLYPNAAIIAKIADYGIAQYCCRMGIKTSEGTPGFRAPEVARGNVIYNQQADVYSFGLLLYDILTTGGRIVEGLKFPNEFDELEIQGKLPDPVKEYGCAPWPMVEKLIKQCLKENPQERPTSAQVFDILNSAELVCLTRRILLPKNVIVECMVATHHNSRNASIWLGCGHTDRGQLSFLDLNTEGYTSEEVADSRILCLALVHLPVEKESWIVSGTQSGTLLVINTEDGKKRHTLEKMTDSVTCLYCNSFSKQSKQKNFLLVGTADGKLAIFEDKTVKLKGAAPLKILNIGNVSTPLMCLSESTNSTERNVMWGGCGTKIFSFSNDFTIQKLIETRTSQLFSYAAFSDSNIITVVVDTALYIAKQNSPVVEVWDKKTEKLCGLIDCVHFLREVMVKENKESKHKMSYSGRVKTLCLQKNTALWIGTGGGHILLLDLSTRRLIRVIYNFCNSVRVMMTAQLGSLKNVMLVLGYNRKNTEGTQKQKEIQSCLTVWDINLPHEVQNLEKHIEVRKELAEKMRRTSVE
# Procedure: as §1
# T1 sequence (Q5S007 1326-2527 G2019S): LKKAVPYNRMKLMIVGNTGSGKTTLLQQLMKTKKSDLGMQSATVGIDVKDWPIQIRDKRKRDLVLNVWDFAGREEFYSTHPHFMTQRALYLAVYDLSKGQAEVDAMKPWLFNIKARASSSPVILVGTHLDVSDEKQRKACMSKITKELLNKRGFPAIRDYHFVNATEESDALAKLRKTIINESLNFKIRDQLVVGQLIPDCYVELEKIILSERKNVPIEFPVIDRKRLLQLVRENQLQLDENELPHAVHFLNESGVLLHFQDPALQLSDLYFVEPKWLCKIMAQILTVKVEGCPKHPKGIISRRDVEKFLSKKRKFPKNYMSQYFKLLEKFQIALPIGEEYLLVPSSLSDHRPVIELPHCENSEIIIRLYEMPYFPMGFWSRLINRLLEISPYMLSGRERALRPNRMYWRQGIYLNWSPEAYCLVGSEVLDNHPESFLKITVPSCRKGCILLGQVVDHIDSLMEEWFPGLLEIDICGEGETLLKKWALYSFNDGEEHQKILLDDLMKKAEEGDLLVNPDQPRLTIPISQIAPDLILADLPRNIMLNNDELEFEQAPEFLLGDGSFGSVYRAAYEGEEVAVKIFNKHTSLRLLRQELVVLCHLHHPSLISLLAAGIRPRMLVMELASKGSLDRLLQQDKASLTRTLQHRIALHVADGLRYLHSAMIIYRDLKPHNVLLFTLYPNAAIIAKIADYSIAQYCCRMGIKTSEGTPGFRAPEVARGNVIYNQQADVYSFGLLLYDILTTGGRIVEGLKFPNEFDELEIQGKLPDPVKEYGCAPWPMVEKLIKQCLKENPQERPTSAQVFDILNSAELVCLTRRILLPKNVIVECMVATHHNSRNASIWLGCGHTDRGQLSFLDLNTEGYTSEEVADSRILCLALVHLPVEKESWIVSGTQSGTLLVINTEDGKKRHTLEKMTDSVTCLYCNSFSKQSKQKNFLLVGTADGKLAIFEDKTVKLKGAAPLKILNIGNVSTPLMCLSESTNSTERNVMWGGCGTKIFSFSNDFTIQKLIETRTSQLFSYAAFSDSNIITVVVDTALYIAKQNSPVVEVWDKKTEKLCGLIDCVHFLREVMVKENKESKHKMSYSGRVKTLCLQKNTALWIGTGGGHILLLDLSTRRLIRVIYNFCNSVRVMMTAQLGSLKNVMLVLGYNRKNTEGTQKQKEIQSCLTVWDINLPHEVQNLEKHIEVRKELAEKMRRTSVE
smiles,measurement,setting,value
"CNc1nc(Nc2ccc(C(=O)N3CCOCC3)cc2OC)nc2[nH]ccc12 [US10913744, Compound 8]",IC50,[1],5.1 nM
same,IC50,[2],2.6 nM
